Experimental data published in paper PMC11062894, “Protein-based bandpass filters for controlling cellular signaling with chemical inputs” (Nature Chemical Biology, 2023).
Values joined by “and” are separate entries in the source; they are usually repeats but may differ in a detail not shown here. Identical values can stand only once.

Test system: GEMS receptors with CBPA11 (BclXL–LD3 and BclXLhigh variants), STAT3-driven SEAP in HEK293T cells
Test: GEMS SEAP reporter assay, CBPA11 (BclXLhigh, LD3-v and BclXL-v variants) with A-1155463
Assay type: cell-based
Set-up: key to Raw data (SEAP) / SEAP, replicate values / Raw data of Figure 5b / Raw data Figure 5e / Raw data of Independent repeat of CBPA11-v1 vs CBPA11-v1-LD3v3 / Raw data of Independent repeat of CBPA11-v3 vs CBPA11-v3-LD3v3 / Raw data of Figure 5b, CBPA11-v1-LD3v3 (SEAP reporter raw value, single replicate) / Raw data of Figure 5b, CBPA11-v1 (SEAP reporter raw value, single replicate): SEAP activity in U/L in culture supernatant
Text: To rationally design a CBP responding to a chemical input, we used BclXL as the druglow receptor, LD3 as the designed binder and a designed BclXL variant as the drughigh receptor (referred to as BclXLhigh) to construct a CBP responsive to BclXL inhibitors (Fig. 4a). To design BclXLhigh, we used a multistate design computational protocol described elsewhere[26] […] Thus, BclXLhigh-v(1–3) were chosen as the functional drughigh receptors, resulting in three A-1155463-controlled CBPs (referred to as CBPA11-v(1–3)) (Fig. 4c–e).
HEK293T cells were seeded in a 96-well plate 24 h before transfection. The transfection mix in each well consisted of 3 ng of constitutive human CMV promoter driven mammalian STAT3 expression vector (PhCMV-STAT3-pA), 30 ng of STAT3-induced reporter expression (OStat3-PhCMVmin-SEAP-pA) and 50 ng of expression vectors for each GEMS receptor chain (PSV40-IgK-(drughigh receptor)-EpoRm-IL-6RBm-pA and PSV40-IgK-(druglow receptor-GGGGSX3-LD3)-EpoRm-IL-6RBm-pA). For the specific drughigh receptor and druglow receptor used in the different cellular assays, they are indicated as wild type or with mutations. Then, plasmid DNA was mixed with 50 μl opti-MEM (Thermo Fisher) and 600 ng of polyethyleneimine (Polysciences, catalog no. 24765-1). For drug treatment experiments, drugs were added 12 h post-transfection and incubated with cells for 24 h before the SEAP reporter detection assay.
SEAP activity (U l^−1) in cell culture supernatants was quantified by kinetic measurements at 405 nm (1 minute per measurement for 30 cycles) of absorbance increase due to phosphatase-mediated hydrolysis of para-nitrophenyl phosphate (pNPP).
Binding affinities of SPR drug competition assays were calculated using three-parameter nonlinear regression in GraphPad Prism (v.8.3.0). Representative data of cell assays are presented as individual values and mean values (bars). n = 3 refers to biological replicates. All IC50 or EC50 values of cell assays reported were calculated using four-parameter nonlinear regression ± s.d. Bandpass features of cutoff concentrations and Bandwidth90% were estimated based on the curve fitted using bell-shaped curve nonlinear regression in GraphPad Prism (v.8.3.0). […]
Supplementary Figure 4: Design, screening and validation of BclXLhigh variants. a) Screening of BclXLhigh variants in the GEMS platform. […]
Dissociation constant measurement of BclXLhigh-v(1-3) and LD3. Equilibrium curves are fitted using […]
BclXLhigh-v1 (purple), BclXLhigh-v2 (blue), […]
a) Bcl2high-based bandpass filter designs were developed and to respond to different concentrations of […]
corresponding inhibitor. c) Screening of Bcl2high-based bandpass filter variants in the GEMS platform.
The designed binder LD3 was fused to the druglow-receptor (PSV40-IgK-Bcl2-LD3-EpoRm-IL-6RBm-pA) in one EpoR chain and Bcl2high variants with the insensitive Bcl2 (iBcl2) as control in the other EpoR chain (PSV40-IgK-Bcl2high-EpoRm-IL-6RBm-pA). HEK293T cells were transfected with indicated […]
the mean of six biological replicates ± s.d., overlaid with a scatter dot plot of the original data points.
(1 picture or pasted object on this page, not shown here)
Supplementary Figure 6: Binding affinities and drug resistances of Bcl2high-v(2,4,5) assessed by […]
a) Measurement of dissociation constants for Bcl2high-v(2,4,5) and LD3 interactions. Equilibrium curves […]
Bcl2high-v(2,4,5) measured by SPR. 5 μM of Bcl2 or indicated variants were mixed with 10 μM of […]
Bcl2high-v2 (red), Bcl2high-v4
Supplementary Figure 7: Screening of LD3 variants in CBPA11-v(1-3) and raw data of CBPA11-v(1,3) with LD3-v3 variant. a-c) Screening of LD3 and LD3-v(1-3) variants in complex with BclXL for more sensitive CBPA11-v1 (a), CBPA11-v2 (b), CBPA11-v3 (c) in the GEMS platform. The LD3 variants replaced the role of LD3 (PSV40-IgK-BclXL-LD3-v(1-3)-EpoRm-IL-6RBm-pA) in one EpoR chain and BclXLhigh-v(1-3) in the other EpoR chain (PSV40-IgK-BclXLhigh-V(1-3)-EpoRm-IL-6RBm-pA). HEK293T cells were transfected with […]

[1] = CBPA11-v3-BclXLv2, A-1155463 10000 nM
[2] = CBPA11-v3-LD3v3, A-1155463 1 nM
[3] = CBPA11-v3-LD3v3, A-1155463 3.18 nM
[4] = CBPA11-v3-LD3v3, A-1155463 10 nM
[5] = CBPA11-v3-LD3v3, A-1155463 31.8 nM
[6] = CBPA11-v3-LD3v3, A-1155463 100 nM
[7] = CBPA11-v3-LD3v3, A-1155463 318 nM
[8] = CBPA11-v3-LD3v3, A-1155463 1000 nM
[9] = CBPA11-v3-LD3v3, A-1155463 3180 nM

Structure (SMILES): CN(C)CC#Cc1ccc(OCCCc2sc(N3CCc4cccc(C(=O)Nc5nc6ccccc6s5)c4C3)nc2C(=O)O)c(F)c1 [A-1155463]
- Normalized data Figure 5e (CBPA11-v3, A-1155463 1000 nM): 81.2661 and 84.4942 and 85.1885
- Normalized data of Figure 5b (CBPA11-v3, A-1155463 1000 nM): 77.1257 and 88.7382 and 83.2133
- Raw data of Figure 5b (CBPA11-v3, A-1155463 1000 nM): 414.242 and 467.209 and 437.572
- Raw data of Independent repeat of CBPA11-v3 vs CBPA11-v3-LD3v3 (CBPA11-v3, A-1155463 1000 nM): 429.812 and 444.52 and 449.13
- Raw data of Independent repeat of CBPA11-v3 vs CBPA11-v3-LD3v3 (CBPA11-v3, A-1155463 3160 nM): 188.374 and 250.833 and 293.834
- Normalized data Figure 5e (CBPA11-v3, A-1155463 3180 nM): 35.6165 and 47.6783 and 55.7329
- Normalized data of Figure 5b (CBPA11-v3, A-1155463 3180 nM): 69.9852 and 73.5971 and 71.687
- Raw data Figure 5e (CBPA11-v3, A-1155463 3180 nM): 250.833 and 293.834
- Raw data of Figure 5b (CBPA11-v3, A-1155463 3180 nM): 375.891 and 387.491 and 376.961
- Normalized data of Figure 5b (CBPA11-v3, A-1155463 10000 nM): 33.3676 and 35.0593 and 32.1412
- Raw data Figure 5e (CBPA11-v3, A-1155463 10000 nM): 69.4522 and 75.5808 and 84.1281
- Raw data of Figure 5b (CBPA11-v3, A-1155463 10000 nM): 179.218 and 184.588 and 169.013
- Normalized data Figure 5e (CBPA11-v3-BclXLv2, A-1155463 1 nM): 21.2301 and 20.9054 and 25.1683
- Normalized data Figure 5e (CBPA11-v3-BclXLv2, A-1155463 3.18 nM): 36.7849 and 34.3141 and 39.7967
- Normalized data Figure 5e (CBPA11-v3-BclXLv2, A-1155463 10 nM): 81.6336 and 75.0518 and 82.9089
- Normalized data Figure 5e (CBPA11-v3-BclXLv2, A-1155463 31.8 nM): 90.6446 and 90.5045 and 89.528
- Normalized data Figure 5e (CBPA11-v3-BclXLv2, A-1155463 100 nM): 100
- Normalized data Figure 5e (CBPA11-v3-BclXLv2, A-1155463 318 nM): 94.0748 and 83.4986 and 97.6461
- Normalized data Figure 5e (CBPA11-v3-BclXLv2, A-1155463 1000 nM): 82.1634 and 70.2925 and 84.8015
- Normalized data Figure 5e (CBPA11-v3-BclXLv2, A-1155463 3180 nM): 56.5379 and 50.558 and 54.1989
- Normalized data Figure 5e [1]: 20.2076 and 19.0615 and 22.8054
- Raw data Figure 5e [1]: 80.3813 and 74.5359 and 94.7265
- Raw data of Independent repeat of CBPA11-v3 vs CBPA11-v3-LD3v3 (CBPA11-v3-LD3v3, A-1155463 0.01 nM): 22.6826 and 23.3953 and 23.1684
- Normalized data of Figure 5b [2]: 18.3263 and 15.7809 and 17.6916
- Raw data of Figure 5b [2]: 15.5654 and 14.7861 and 18.9282
- Raw data of Independent repeat of CBPA11-v3 vs CBPA11-v3-LD3v3 [2]: 39.675 and 38.1934 and 39.412
- Raw data of Independent repeat of CBPA11-v3 vs CBPA11-v3-LD3v3 (CBPA11-v3-LD3v3, A-1155463 3.16 nM): 41.6393 and 41.4109 and 44.6799
- Normalized data of Figure 5b [3]: 21.7199 and 21.0211 and 18.3728
- Raw data of Figure 5b [3]: 18.4478 and 19.6959 and 19.6571
- Normalized data of Figure 5b [4]: 42.8939 and 42.6676 and 37.1804
- Raw data of Figure 5b [4]: 36.4319 and 39.9778 and 39.7793
- Raw data of Independent repeat of CBPA11-v3 vs CBPA11-v3-LD3v3 [4]: 121.488 and 115.434 and 117.733
- Raw data of Independent repeat of CBPA11-v3 vs CBPA11-v3-LD3v3 (CBPA11-v3-LD3v3, A-1155463 31.6 nM): 175.057 and 186.814 and 198.727
- Normalized data of Figure 5b [5]: 100 and 85.1231 and 93.5368
- Raw data of Figure 5b [5]: 84.9348 and 79.7569 and 100.075
- Normalized data of Figure 5b [6]: 98.4645 and 100
- Raw data of Figure 5b [6]: 83.6306
- Raw data of Independent repeat of CBPA11-v3 vs CBPA11-v3-LD3v3 [6]: 212.624 and 240.137 and 273.777
- Raw data of Independent repeat of CBPA11-v3 vs CBPA11-v3-LD3v3 (CBPA11-v3-LD3v3, A-1155463 316 nM): 197.006 and 197.385 and 185.58
- Normalized data of Figure 5b [7]: 66.0363 and 74.9346 and 74.5506
- Raw data of Figure 5b [7]: 56.0878 and 70.2108 and 79.7618
- Normalized data of Figure 5b [8]: 44.7107 and 39.495 and 38.775
- Raw data of Figure 5b [8]: 37.975 and 37.0053 and 41.4854
- Raw data of Independent repeat of CBPA11-v3 vs CBPA11-v3-LD3v3 [8]: 89.9783 and 83.2851 and 69.3694
- Raw data of Independent repeat of CBPA11-v3 vs CBPA11-v3-LD3v3 (CBPA11-v3-LD3v3, A-1155463 3160 nM): 42.2434 and 33.2038 and 38.7983
- Normalized data of Figure 5b [9]: 16.4914 and 15.345 and 15.1706
- Raw data of Figure 5b [9]: 14.007 and 14.3777 and 16.2311
